The numbers were not newly measured in patent US7455864B2, “Melatonin-based composition for improved sleep” (Iomedix Development International Srl, priority 2007, dated 2008), which cites them from elsewhere.

The structures appear in SMILES notation.

The test system of series [1] is humans. The conditions noted are these: melatonin supplementation in humans.
For series [2], the system named is humans. As to conditions: melatonin supplementation in humans. The source holds these as a separate data set.
Series [3] has as its system humans. As to conditions: transdermal absorption.

Take `COc1ccc2[nH]cc(CCNC(C)=O)c2c1` [Melatonin]: the onset of sleep result in series [1] is given as “hastening the onset of sleep”. The “treatment of jet lag” value in series [2] is listed as “efficacious for treating jet lag”.

In the case of `C=CC(C)(O)CCC=C(C)C` (stereo not shown) [linalool], in series [3], the blood pressure entry is “reduce” and the skin temperature entry is given as “reduce”.
